pIC50: −log10 of the molar value. Structures can show the parent of a compound that is named as a salt.
Legend:
NLRP3 [1] = target: T1, NLRP3 (Homo sapiens, UniProt Q96P20); test: THP-1 cells pyroptosis assay (LPS + nigericin, resazurin readout; THP IC50); type: cell-based; set-up: Seed THP-1 cells (25,000 cells/well) containing 1.0 μg/ml LPS in 40 μl of RPMI medium; host or cells: THP-1 cells
Method in brief: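 IC50 from 4-parameter fit of resazurin fluorescence (100 μM, 1-2 hrs), reflecting surviving cells after pyroptosis. LPS-primed (1 μg/ml) THP-1 cells in FBS-free RPMI got compound for 3 hrs at 37° C (top 10 μM, half-log, 8 points), then nigericin 5 μM for 1 hr.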

NLRP3 [2] = target: T1, NLRP3; test: Human whole blood IL1β release assay (LPS + nigericin, AlphaLisa IL-1β; HWB IC50); type: cell-based; set-up: Human whole blood in Li-heparin tubes was obtained from healthy donors from a volunteer donor panel; from tissue; host or cells: human whole blood from healthy donors; settings: IL-1β release
Method: For systemic delivery, the ability to inhibit NLRP3 when the compounds are present within the bloodstream is of great importance. For this reason, the NLRP3 inhibitory activity of a number of compounds in human whole blood was investigated in accordance with the following protocol.
Human whole blood in Li-heparin tubes was obtained from healthy donors from a volunteer donor panel. • 1. Plate out 80 μl of whole blood containing 1 μg/ml of LPS in 96-well, clear bottom cell culture plate (Corning #3585) • 2. Add 10 μl compound (8 points half-log dilution with 10 μM top dose) or vehicle (DMSO 0.1% FAC) to the appropriate wells • 3. Incubate for 3 hrs at 37° C., 5% CO2 • 4. Add 10 μl nigericin (Sigma #N7143) (10 μM FAC) to all wells • 5. Incubate for 1 hr at 37° C., 5% CO2 • 6. At the end of the incubation period, spin plates at 300×g for 5 mins to pellet cells and remove 20 μl of supernatant and add to 96-well v-bottom plates for IL-1β analysis (note: these plates containing the supernatants can be stored at −80° C. to be analysed at a later date) • 7. IL-1β was measured according to the manufacturer protocol (Perkin Elmer-AlphaLisa IL-1 Kit AL220F-5000) • 8. IC50 data is fitted to a non-linear regression equation (log inhibitor vs response-variable slope 4-parameters)

T1 sequence (Q96P20 whole entry): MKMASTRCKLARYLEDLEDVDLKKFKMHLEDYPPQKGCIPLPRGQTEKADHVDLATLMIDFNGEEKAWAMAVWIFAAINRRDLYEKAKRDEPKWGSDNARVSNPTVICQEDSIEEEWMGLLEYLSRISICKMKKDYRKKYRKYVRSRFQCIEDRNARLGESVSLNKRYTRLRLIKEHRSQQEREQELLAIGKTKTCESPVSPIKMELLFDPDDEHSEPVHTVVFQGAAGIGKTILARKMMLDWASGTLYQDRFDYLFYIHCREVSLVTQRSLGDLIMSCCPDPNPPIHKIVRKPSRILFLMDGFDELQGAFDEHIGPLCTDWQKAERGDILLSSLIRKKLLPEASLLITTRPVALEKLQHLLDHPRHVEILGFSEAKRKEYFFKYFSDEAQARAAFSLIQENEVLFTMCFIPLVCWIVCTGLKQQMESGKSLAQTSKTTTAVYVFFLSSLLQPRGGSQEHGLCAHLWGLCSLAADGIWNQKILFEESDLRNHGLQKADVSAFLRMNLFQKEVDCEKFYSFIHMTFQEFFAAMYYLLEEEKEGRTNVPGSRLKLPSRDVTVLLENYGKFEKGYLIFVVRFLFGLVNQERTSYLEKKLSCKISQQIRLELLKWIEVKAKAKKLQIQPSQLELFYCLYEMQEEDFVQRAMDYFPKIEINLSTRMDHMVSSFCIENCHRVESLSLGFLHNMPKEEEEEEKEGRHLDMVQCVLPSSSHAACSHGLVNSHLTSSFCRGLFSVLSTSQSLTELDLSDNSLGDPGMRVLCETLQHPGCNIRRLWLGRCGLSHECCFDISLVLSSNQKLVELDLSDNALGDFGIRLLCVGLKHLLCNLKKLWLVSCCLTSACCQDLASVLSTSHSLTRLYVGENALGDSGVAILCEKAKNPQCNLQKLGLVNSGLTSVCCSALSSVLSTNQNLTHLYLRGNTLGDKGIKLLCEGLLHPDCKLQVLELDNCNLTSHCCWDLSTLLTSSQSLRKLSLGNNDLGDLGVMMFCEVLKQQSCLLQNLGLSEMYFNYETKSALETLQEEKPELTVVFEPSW

Row | pIC50 (NLRP3 [1]) | pIC50 (NLRP3 [2]) | Structure (SMILES)
1 | ≥ 6.30 | ≥ 6.00 | COc1cc(-c2cc(F)cc(C(C)C)c2NC(=O)NS(=O)(=O)c2ccn(C(C)C)n2)ccn1 [Example 12, N-((4-Fluoro-2-iso-propyl-6-(2-methoxypyridin-4-yl)phenyl)carbamoyl)-1-iso-propyl-1H-pyrazole-3-sulfonamide, partial ammonium salt]
2 | ≥ 6.30 | ≥ 6.00 | CC(C)c1cc(F)cc(-c2ccnc(N)c2)c1NC(=O)NS(=O)(=O)c1ccn(C(C)C)n1 [Example 23, N-((2-(2-Aminopyridin-4-yl)-4-fluoro-6-isopropylphenyl)carbamoyl)-1-iso-propyl-1H-pyrazole-3-sulfonamide]
3 | ≥ 6.30 | ≥ 6.00 | CCOc1cc(-c2cc(F)cc(C(C)C)c2NC(=O)NS(=O)(=O)c2ccn(C(C)C)n2)ccn1 [Example 24, N-((2-(2-Ethoxypyridin-4-yl)-4-fluoro-6-iso-propylphenyl)carbamoyl)-1-iso-propyl-1H-pyrazole-3-sulfonamide]
4 | ≥ 6.30 | ≥ 5.30 | CC(C)Oc1cc(-c2cc(F)cc(C(C)C)c2NC(=O)NS(=O)(=O)c2ccn(C(C)C)n2)ccn1 [Example 27, N-((4-Fluoro-2-(2-isopropoxypyridin-4-yl)-6-iso-propyl-phenyl)carbamoyl)-1-iso-propyl-1H-pyrazole-3-sulfonamide]
5 | ≥ 6.30 | ≥ 6.30 | CC(C)c1cc(F)cc(-c2ccnc(C#N)c2)c1NC(=O)NS(=O)(=O)c1cc(CN(C)C)n(C)n1 [Example 48, N-((2-(2-Cyanopyridin-4-yl)-4-fluoro-6-isopropylphenyl)carbamoyl)-5-((dimethylamino)methyl)-1-methyl-1H-pyrazole-3-sulfonamide]
6 | ≥ 6.30 | ≥ 6.30 | CCn1nc(S(=O)(=O)NC(=O)Nc2c(-c3ccnc(C#N)c3)cc(F)cc2C(C)C)cc1CN(C)C [Example 49, N-((2-(2-Cyanopyridin-4-yl)-4-fluoro-6-isopropylphenyl)carbamoyl)-5-((dimethylamino)methyl)-1-ethyl-1H-pyrazole-3-sulfonamide]
7 | ≥ 6.30 | ≥ 5.30 | COc1cc(-c2cc(F)cc(C(C)C)c2NC(=O)NS(=O)(=O)c2cn(C(C)C)cn2)ccn1 [Example 53, N-((4-Fluoro-2-isopropyl-6-(2-methoxypyridin-4-yl)phenyl)carbamoyl)-1-isopropyl-1H-imidazole-4-sulfonamide]
8 | ≥ 6.30 | ≥ 6.30 | CCN(CC)CCCS(=O)(=O)NC(=O)Nc1c(-c2cccnc2)cc(F)cc1C(C)C [Example 58, 3-(Diethylamino)-N-((4-fluoro-2-isopropyl-6-(pyridin-3-yl)phenyl)carbamoyl)propane-1-sulfonamide]
9 | – | ≥ 6.00 | CCN1CCC(S(=O)(=O)NC(=O)Nc2c(-c3ccncc3)ccc3c2CCC3)CC1 [Example 101, 1-Ethyl-N-((5-(pyridin-4-yl)-2,3-dihydro-1H-inden-4-yl)carbamoyl)piperidine-4-sulfonamide, potassium salt]
10 | ≥ 6.00 | – | CC(C)n1ccc(S(=O)(=O)NC(=O)Nc2c(-c3ccnc(OC4CCN(C)C4)c3)ccc3c2CCC3)n1 (stereo not shown) [Example 301, 1-Isopropyl-N-((5-(2-((1-methylpyrrolidin-3-yl)oxy)pyridin-4-yl)-2,3-dihydro-1H-inden-4-yl)carbamoyl)-1H-pyrazole-3-sulfonamide, sodium salt]
11 | ≥ 5.30 | – | CC(C)n1ccc(S(=O)(=O)NC(=O)Nc2c(-c3ccnc(OCCN(C)C)c3)ccc3c2CCC3)n1 [Example 302, N-((5-(2-(2-(Dimethylamino)ethoxy)pyridin-4-yl)-2,3-dihydro-1H-inden-4-yl)carbamoyl)-1-isopropyl-1H-pyrazole-3-sulfonamide, sodium salt]
12 | ≥ 5.00 | – | CC(C)c1cc(F)cc(-c2ccnc(C#N)c2)c1NC(=O)NS(=O)(=O)N1CC2CCN(C)C2C1 (stereo not shown) [Example 319, N-((2-(2-Cyanopyridin-4-yl)-4-fluoro-6-isopropylphenyl)carbamoyl)-1-methylhexahydropyrrolo[3,4-b]pyrrole-5(1H)-sulfonamide]
13 | ≥ 5.30 | – | COc1cc(-n2nc3c(c2NC(=O)NS(=O)(=O)c2cc(C(C)(C)O)co2)CCC3)ccn1 [Example 322, 4-(2-Hydroxypropan-2-yl)-N-((2-(2-methoxypyridin-4-yl)-2,4,5,6-tetrahydrocyclopenta[c]pyrazol-3-yl)carbamoyl)furan-2-sulfonamide]

The next lines start with the molecule.

Row | Structure (SMILES) | pIC50 (NLRP3 [1]) | pIC50 (NLRP3 [2])
14 | CC(C)c1cc(F)cc(-c2cncnc2)c1NC(=O)NS(=O)(=O)c1cc(C(=O)N(C)C)n(C)n1 [Example 32, 3-(N-((4-Fluoro-2-iso-propyl-6-(pyrimidin-5-yl)phenyl)carbamoyl)sulfamoyl)-N,N,1-trimethyl-1H-pyrazole-5-carboxamide, sodium salt] | ≥ 6.30 | ≥ 6.30
15 | COC(C)(C)c1cc(S(=O)(=O)NC(=O)Nc2c(-c3cccnc3)cc(F)cc2C(C)C)nn1C [Example 35, N-((4-Fluoro-2-iso-propyl-6-(pyridin-3-yl)phenyl)carbamoyl)-5-(2-methoxypropan-2-yl)-1-methyl-1H-pyrazole-3-sulfonamide] | ≥ 6.30 | ≥ 6.00
16 | CC(C)c1cc(F)cc(-c2cccc(C#N)c2)c1NC(=O)NS(=O)(=O)c1cc(CN(C)C)n(C(C)C)n1 [Example 39, N-((3′-Cyano-5-fluoro-3-iso-propyl-[1,1′-biphenyl]-2-yl)carbamoyl)-5-((dimethylamino)methyl)-1-isopropyl-1H-pyrazole-3-sulfonamide] | ≥ 6.00 | ≥ 6.00
17 | CC(C)c1cc(F)cc(-c2ccccc2)c1NC(=O)NS(=O)(=O)c1cc(CN(C)C)n(C)n1 [Example 40, 5-((Dimethylamino)methyl)-N-((5-fluoro-3-iso-propyl-[1,1′-biphenyl]-2-yl)carbamoyl)-1-methyl-1H-pyrazole-3-sulfonamide] | ≥ 6.30 | ≥ 6.00
18 | CC(C)c1cc(F)cc(-c2cccnc2)c1NC(=O)NS(=O)(=O)c1cc(CN(C)C)n(C(C)C)n1 [Example 41, 5-((Dimethylamino)methyl)-N-((4-fluoro-2-iso-propyl-6-(pyridin-3-yl)phenyl)carbamoyl)-1-iso-propyl-1H-pyrazole-3-sulfonamide] | ≥ 6.30 | ≥ 6.00
19 | CC(C)c1cc(F)cc(-c2ccccc2)c1NC(=O)NS(=O)(=O)c1cc(CN(C)C)n(C(C)C)n1 [Example 46, 5-((Dimethylamino)methyl)-N-((5-fluoro-3-isopropyl-[1,1′-biphenyl]-2-yl)carbamoyl)-1-isopropyl-1H-pyrazole-3-sulfonamide] | ≥ 6.00 | ≥ 5.30
20 | COc1cc(-c2cc(F)cc(C(C)C)c2NC(=O)NS(=O)(=O)c2cc(C3(OC)COC3)n(C)n2)ccn1 [Example 52, N-((4-Fluoro-2-isopropyl-6-(2-methoxypyridin-4-yl)phenyl)carbamoyl)-5-(3-methoxyoxetan-3-yl)-1-methyl-1H-pyrazole-3-sulfonamide] | ≥ 6.30 | ≥ 6.30
21 | COc1cc(-c2ccc3c(c2NC(=O)NS(=O)(=O)c2ccn(C(C)C)n2)CCC3)ccn1 [Example 56, 1-Isopropyl-N-((5-(2-methoxypyridin-4-yl)-2,3-dihydro-1H-inden-4-yl)carbamoyl)-1H-pyrazole-3-sulfonamide] | ≥ 6.30 | ≥ 6.30
22 | CC(C)c1cc(F)cc(-c2cccnc2)c1NC(=O)NS(=O)(=O)c1ccn(CCN(C)C)n1 [Example 57, 1-(2-(Dimethylamino)ethyl)-N-((4-fluoro-2-isopropyl-6-(pyridin-3-yl)phenyl)carbamoyl)-1H-pyrazole-3-sulfonamide] | ≥ 6.00 | ≥ 6.00
23 | COC1(c2cc(S(=O)(=O)NC(=O)Nc3c(-c4cccnc4)cc(F)c4c3CCC4)nn2C)COC1 [Example 59, N-((7-Fluoro-5-(pyridin-3-yl)-2,3-dihydro-1H-inden-4-yl)carbamoyl)-5-(3-methoxyoxetan-3-yl)-1-methyl-1H-pyrazole-3-sulfonamide] | ≥ 6.30 | ≥ 6.00
24 | CC(=O)Nc1cc(-c2ccc3c(c2NC(=O)NS(=O)(=O)c2ccn(C(C)C)n2)CCC3)ccn1 [Example 297, N-(4-(4-(3-((1-Isopropyl-1H-pyrazol-3-yl)sulfonyl)ureido)-2,3-dihydro-1H-inden-5-yl)pyridin-2-yl)acetamide, sodium salt] | ≥ 6.00 | –
25 | COc1cc(-c2ccc3c(c2NC(=O)NS(=O)(=O)c2ccc(C(=O)N(C)C)cc2)CCO3)ccn1 [Example 309, 4-(N-((5-(2-Methoxypyridyl-4-yl)-2,3-dihydrobenzofuran-4-yl)carbamoyl)sulfamoyl)-N,N-dimethylbenzamide, sodium salt] | ≥ 5.30 | –

— patent US20200361895A1, “NOVEL SULFONAMIDE CARBOXAMIDE COMPOUNDS” (Inflazome Limited, priority 2017, published 2020)
